Results from patent US20260284082A1, “TARGETING THE PANX1-P2Y2R-TRPV4 PATHWAY TO TREAT LUNG ISCHEMIA-REPERFUSION INJURY” (UNIVERSITY OF VIRGINIA PATENT FOUNDATION, priority 2023, published 2026).
Like-named read-outs stand apart in the source and are kept apart here.

Key:
[1] = system: pulmonary endothelium of small PAs; assay: Endothelial Ca2+ signals in small PAs exposed ex vivo to acute hypoxia-reoxygenation (HR); type: cell-based; conditions: GSK219 100 nM; small PAs from TRPV4fl/fl mice, 1 h hypoxia + 10 min reoxygenation
Protocol: (§1) Ca^2+ imaging in Pas: Ca^2+ imaging in small Pas was performed as previously described.8 Fourth-order, small (~50 μm diameter) Pas (see FIG. 1B) were dissected from left lungs in cold HEPES-buffered physiological salt solution (HEPES-PSS; 10 mM HEPES, 134 mM NaCl, 6 mM KCl, 1 mM MgCl2 hexahydrate, 2 mM CaCl2) dihydrate, and 7 mM dextrose; pH adjusted to 7.4 using 1 M NaOH). Ca^2+ imaging studies were performed in en face preparations of small Pas incubated with Fluo-4 AM (10 μM) and pluronic acid (0.04%) at 37° C. for 10 minutes. For studies after sham or lung IR surgery, small Pas were immediately dissected out after the indicated reperfusion time and incubated en face with Fluo-4 AM. […] Fluo-4 was excited using a 488-nm solid-state laser, and emitted fluorescence was captured using a 525/36-nm band-pass filter. […] Baseline Ca^2+ signaling activity was recorded in the absence of CPA.
Analysis of baseline Ca^2+ signaling activity and TRPV4 sparklet activity in the pulmonary endothelium: Ca^2+ images acquired using the procedure described above were analyzed with custom-designed SparkAn software (source code available at https://github.com/vesselman/SparkAn).^10 Fractional fluorescence (F/F0) traces were obtained by placing a 1.7 μm2 (5×5 pixels) region of interest (ROI) at the peak event amplitude. […] Overall baseline Ca^2+ signals were automatically detected using a threshold of 1.25 F/F0. […]

[2] = rat, in vivo; cited from earlier work
[3] = dog, in vivo; cited from earlier work
[4] = system: murine primary pulmonary microvascular endothelial cells (PMVECs); assay: Proinflammatory cytokine release from murine PMVECs after hypoxia-reoxygenation; type: cell-based; conditions: 6 h hypoxia + 4 h reoxygenation, AR-C 10 mM, 5 μM
Protocol: We used 6 hours hypoxia followed by 4 hours normoxia/reoxygenation (HR) in murine primary pulmonary microvascular endothelial cells (PMVECs) as a surrogate model of lung IR. Control cells were exposed to 10 hours normoxia (N). PMVECs were treated with vehicle or P2Y2R inhibitor AR-C ([…], 6 hrs). The concentrations of chemokine (C—X—C motif) ligand 1 (CXCL1) and monocvte chemoattractant protein-1 (MCP-1) in the culture media was measured using a mouse keratinocyte-derived chemokine (KC)/CXCL1 Quantikine ELISA kit (R&D Systems, Minneapolis, MN) and multiplex cytokine panel assay (Bio-Rad Laboratories, Hercules, CA), respectively. KC and MCP-1 levels were increased in PMVECs exposed to HR. Treatment of PMVECs with P2Y2R inhibitor AR-C reduced the levels of KC (FIG. 13A) and MCP-1 (FIG. 13B) in the culture media.

[5] = system: endothelium of human small PAs; assay: Baseline endothelial Ca2+ signaling in freshly isolated small PAs from human lungs exposed to HR; type: cell-based; conditions: ARC; human small PAs (~50 μm)
Protocol: as §1, with “AM. For acute hypoxia-reoxygenation (HR) exposure, small Pas were washed with PBS, after which serum free/glucose-free endothelial cell medium was added. Small Pas were placed in a humidified, sealed hypoxia chamber (Billups-Rothenberg, San Diego, CA), which was subsequently flushed with 95% nitrogen/5% CO2 for 20 minutes and placed in a 37° C. incubator to initiate hypoxia. After 1 hour of hypoxia, the chamber was opened to terminate hypoxia.” for “AM.”, “CPA. […]” for “CPA.”

Row | SMILES | HR-induced increase in endothelial Ca2+ signals [1] | plasma half-life (t1/2) [2] | plasma half-life (t1/2) [3] | KC level in the culture media [4] | MCP-1 level in the culture media [4] | HR-induced increase in endothelial Ca2+ signaling [5]
1 | O=C(NC1(c2ccccc2)CC1)c1c(CN2CCC(N3CCCCC3)CC2)c(-c2cccc(C(F)(F)F)c2)nc2cc(Br)ccc12 [GSK219, GSK2193874] | completely abolished | 10 h | 31 h |  |  | 
2 | Cc1ccc2c(c1)C=Cc1cc(C)ccc1C2c1cn(Cc2ccc(C(=O)Nc3nn[nH]n3)o2)c(=O)[nH]c1=S [ARC, AR-C 118925XX] |  |  |  | reduced | reduced | inhibited
